From patent US12325700B2, “Crystal form S4 of the PLK4 inhibitor (1R,2S)-(e)-2-(3-(4-((cis-2,6-dimethylmorpholino)methyl)styryl)-1 h-imidazol-6-yl)-5′-methoxyspiro[cyclopropane-1,3′-indolin]-2′-one fumarate” (UNIVERSITY HEALTH NETWORK, priority 2019, dated 2025)
In brackets after ≈: the same amount, converted by molar mass. Where a name gives a salt, the structure may show the parent alone. Read-outs that look alike come from different tables or passages of the source.

Columns and labels:
[1] = In-vitro dissolution testing of tablets (oral dosage forms); format: physicochemical
Text: According to the FDA's guidance, in vitro dissolution testing of a drug substance in its oral dosage forms can be properly designed to establish an In Vivo-In Vitro Correlation (IVIVC), i.e., the correlation between an in-vitro property of a dosage form and an in-vivo response. With this guidance, two batches of fumarate containing crystal forms D and S4 were used to prepare tablets, to evaluate any impact on performance of the drug product. Each of the two batches of fumarate and excipients were individually sieved before weighing. The desired weight of each component was then transferred into a shaker mixer and blended. Tableting for the two batches was then performed using a single punch tablet press.
The performance of these tablets was then evaluated using a properly validated dissolution test method.

[2] = Intrinsic dissolution rate at pH 2; format: physicochemical
[3] = Dynamic vapor sorption (DVS) hygroscopicity measurement; format: physicochemical; conditions: 25° C.
Method: Hygroscopicity measurements were performed by transferring about 10 mg of sample into a DVS instrument and subsequently recording the weight change with respect to the atmospheric humidity at 25° C. using the following parameters: […]

[4] = Equilibrium solubility in bio-relevant media at ambient temperature; format: physicochemical; conditions: for solubility thermodynamic: thermodynamic from solid
Method: Also, equilibrium solubilities were measured in various bio-relevant media at ambient temperature.

[5] = human, in vivo
Method: Patients were dosed in clinical trials approved by Health Canada and the Research Ethics Board of the Hospital administering the drug. Eight patients were administered the form S4 tablets, six at a dose level of 48 mg and two at a dose level of 160 mg. 64 patients were administered the form D tablets at doses ranging from 3-160 mg.
Blood was collected for analysis prior to dosing and 2, 4, and 6 h after dosing. Briefly, using standard phlebotomy procedures, approximately 6 mL of blood was collected into a K3EDTA blood collection tube and then inverted 8-10 times to mix. The sample was then centrifuged at 1,000 g for 10-15 min at approximately 5° C. The plasma fraction of the blood was removed using a disposable pipette, transferred to a new tube, frozen at −70° C. and subsequently shipped on dry ice for analysis.
Levels of compound (I) were measured in plasma using a method validated in accordance to all applicable USFDA, OECD and MHLW regulations and the USFDA Guidance for Industry: Bioanalytical Method Validation May 2001. […] After evaporation of the extraction solvent, the sample extracts were reconstituted and analyzed by reversed-phase HPLC using a Waters Atlantis dC18. […] The ionized compounds were detected using MS/MS. […] Pharmacokinetic parameters were determined using the Excel add in “PK Functions” […]

| Dissolution Max ([1]; time 15) | Dissolution Mean ([1]; time 15) | Dissolution Min ([1]; time 15) | Dissolution Max ([1]; time 30) | Dissolution Mean ([1]; time 30) | Dissolution Min ([1]; time 30) | Dissolution Max ([1]; time 60 (60 min)) | Dissolution Mean ([1]; time 60 (60 min)) | Dissolution Min ([1]; time 60 (60 min)) | Intrinsic dissolution rate [2] | weight gain at 80% RH [3] | solubility thermodynamic ([4]; fasted state simulating gastric fluid (FaSSGF), fassgf or other biorelevant, fasted state simulating gastric fluid (FaSSGF), read-out: equilibrium solubility in FaSSGF) | solubility thermodynamic ([4]; fasted state simulating intestinal fluid (FaSSIF), fassif, fasted state simulating intestinal fluid (FaSSIF), read-out: equilibrium solubility in FaSSIF) | average dose-normalized exposure (AUC0-6 h divided by dose) [5] | equilibrium solubility in FaSSGF ([4]; fasted state simulating gastric fluid (FaSSGF)) | equilibrium solubility in FaSSIF ([4]; fasted state simulating intestinal fluid (FaSSIF)) | Structure (SMILES) |
| --- | --- | --- | --- | --- | --- | --- | --- | --- | --- | --- | --- | --- | --- | --- | --- | --- |
| 64% | 63% | 61% | 86% | 83% | 81% | 98% | 94% | 92% | 440.4 μg/cm^2-min | 0.56% | 2080 µg/mL (≈ 3890 µM) | 80 µg/mL (≈ 150 µM) |  |  |  | COc1ccc2c(c1)[C@]1(C[C@H]1c1ccc3c(/C=C/c4ccc(CN5C[C@@H](C)O[C@@H](C)C5)cc4)n[nH]c3c1)C(=O)N2 [form D] |
| 77% | 76% | 74% | 91% | 90% | 89% | 95% | 94% | 93% | 429.3 μg/cm^2-min | 0.41% |  |  | 5.99 ± 2.48 ng·h/mL/mg | 2520 µg/mL | 50 µg/mL | COc1ccc2c(c1)[C@]1(C[C@H]1c1ccc3c(/C=C/c4ccc(CN5C[C@@H](C)O[C@@H](C)C5)cc4)n[nH]c3c1)C(=O)N2 [form S4, (1R,2S)-(e)-2-(3-(4-((cis-2,6-dimethylmorpholino)methyl)styryl)-1 h-imidazol-6-yl)-5′-methoxyspiro[cyclopropane-1,3′-indolin]-2′-one fumarate] |
